Assay results reported in paper PMC12051030, “Identification of inhibitors of the Salmonella FraB deglycase, a drug target” (FEBS Open Bio, 2025).

Key:
[1] = system: Salmonella tolC mutant; assay: Growth assay, Salmonella tolC mutant in wild‐type or fra island mutant background; type: cell-based; conditions: early finding; could not be replicated after multiple attempts with stocks from different suppliers (data not shown)
Description: We sought to examine the possibility that some of the hits in the biochemical HTS were not picked up in the cell‐based assays due to efficient efflux mechanisms in Salmonella. Because TolC is an outer membrane protein channel that is essential for the ability of seven of the 10 inner membrane drug‐efflux transporters to expel structurally diverse molecules, we generated a Salmonella tolC mutant and tested the 121 compounds that we purchased (Sabag‐Daigle, A. & Ahmer, B. M. M., unpublished results). The tests were conducted in parallel using the tolC mutant in a wild‐type or fra island mutant background; the latter lacks the entire fra locus and is incapable of catabolizing F‐Asn and forming 6‐P‐F‐Asp. Thus, any inhibitor specific for FraB (and which was being effluxed in the wild‐type) will inhibit the tolC mutant in a wild‐type but not the fra island mutant background. A caveat is that efflux of compounds may also be achieved via TolC‐independent drug‐efflux pumps.

[2] = system: dCTP pyrophosphatase 1; set-up: method as in PMID 28145708; conditions: bioassay records in PubChem; cited from earlier work
[3] = system: deubiquitinase USP17; set-up: method as in PMID 28145708; conditions: bioassay records in PubChem; cited from earlier work
[4] = system: deubiquitinase USP28; set-up: method as in PMID 28145708; conditions: bioassay records in PubChem; cited from earlier work
[5] = system: deubiquitinase USP30; set-up: method as in PMID 28145708; conditions: bioassay records in PubChem; cited from earlier work

**Q.** Which “inhibition of growth of Salmonella tolC, fra‐dependent” value (“inhibition of growth … fra‐dependent” for short) [1] does the source give for `Fc1ccc(-c2nn3c(-c4ccccn4)nnc3s2)cc1` [3469:N17, 6‐(4‐fluorophenyl)‐3‐pyridin‐2‐yl‐[1,2,4]triazolo[3,4‐b][1,3,4]thiadiazole] here?
**A.** Its value is “initially shown to inhibit the growth of Salmonella tolC in a fra‐dependent manner”.

**Q.** And the “inhibition of dCTP pyrophosphatase 1” value [2]?
**A.** Its value is “reported to inhibit”.

**Q.** With `c1ccc(-c2nnc3sc(C4COc5ccccc5O4)nn23)nc1` (stereo not shown) [3469:F02, 6‐(2,3‐dihydro‐1,4‐benzodioxin‐3‐yl)‐3‐pyridin‐2‐yl‐[1,2,4]triazolo[3,4‐b][1,3,4]thiadiazole] as the compound, how does the “inhibition of growth … fra‐dependent” value [1] read?
**A.** Its value is “initially shown to inhibit the growth of Salmonella tolC in a fra‐dependent manner”.

**Q.** Which “inhibition of growth … fra‐dependent” value [1] does the source give for `CC(C)Cc1cc(-c2nn3c(-c4ccccc4Cl)nnc3s2)n[nH]1` [3470:A09, 3‐(2‐chlorophenyl)‐6‐[5‐(2‐methylpropyl)‐1H‐pyrazol‐3‐yl]‐[1,2,4]triazolo[3,4‐b][1,3,4]thiadiazole] here?
**A.** The value was “initially shown to inhibit the growth of Salmonella tolC in a fra‐dependent manner”.

**Q.** And the “inhibition of USP17” value [3]?
**A.** Its value is “found to inhibit”.

**Q.** And the “inhibition of USP28” value [4]?
**A.** The value was “found to inhibit”.

**Q.** And the “inhibition of USP30” value [5]?
**A.** The value was “found to inhibit”.
